According to patent US9487462B2, “Inhibitors of matrix metalloproteinases” (PharmaHungary 2000 Kft., priority 2010, dated 2016):
Where a name gives a salt, the structure may show the parent alone. Read-outs that look alike come from different tables or passages of the source.

Legend:
MMP-2 = MMP-2 (Rattus norvegicus (Rat), UniProt P33436); assay: In vitro zymography assay (gelatin), MMP-2; assay type: biochemical
Description: (§1) MMP-2 and MMP-9 enzymes were isolated from rat hearts and from rat spleen while human, recombinant MMP-1 and MMP-13 enzymes used were commercial. MMP-2, -9, -13 enzymes were separated by electrophoresis during non-reducing conditions on 8% SDS-polyacrylamide gels copolymerized with 2 mg/ml gelatin from porcine skin (Sigma Aldrich) while MMP-1 was separated under the same conditions on 8% SDS-polyacrylamide gels copolymerized with 2 mg/ml casein (Sigma Aldrich). […] In case of MMP-13 p-aminophenylmercuric acetate (APMA) was used for enzyme activation at 37° C. for 30 min. After electrophoresis, gels were washed in 2.5% Triton-X 100 with agitation and then incubated for 20 hrs at 37° C. in enzyme incubation buffer (50 mM Tris-HCl, pH 7.5, containing 5 mM CaCl2, 200 mM NaCl) with or without MMP inhibitor. Zymographic gels were stained in Coomassie Brilliant Blue R-250 and de-stained. Gelatin and casein zymograms were scanned. MMP activity is detected as a white zone on a blue background and the clear bands in the gel can be quantified by densitometry. The obtained density values were measured and % inhibition values calculated (Kupai et al., 2010). The table below summarizes the prescreen inhibition values determined for different MMP inhibitors on MMP1, -2, -9, -13.

[1] = Cytotoxicity, alamarBlue viability, MRC-5; assay type: cell-based; settings: human, MRC-5 fibroblast cells, 48 hours incubation, read-out: MRC-5 LC50
Description: (§2) Beside the inhibitory effect on MMPs we tested the cytotoxicity of the selected compounds. These measurements were done in parallel on two cell lines. One of them was the healthy human fibroblast cell line MRC-5 while the other was the human colon tumor cell line HCT116. The viability of the cells was monitored using alamarBlue. This dye is reduced by the cells resulting in an increased fluorescent signal which is proportional to the number of living cells. Cells were incubated with the dilutions of the tested compounds for 48 hours then alamarBlue was added to them for 4 hours. After that the fluorescence changes were detected using excitation at 540 nm and emission wavelength of 590 nm by a Wallac 1420 Microplate Reader. IC50 values were determined for the compounds using six concentrations and duplicate points for each concentration.

MMP9 = MMP9 (Homo sapiens, UniProt P14780); assay: MMP activity assay (fluorogenic substrate), MMP9 catalytic domain; assay type: biochemical; settings: Table 2
Description: (§3) MMP activity assays were conducted as follows: MMP2, MMP9, MMP13 catalytic domain was expressed in E. coli in form of inclusion bodies followed by refolding and purification.
(§4) The Protocol of the Activity Assay:
(§5) Stock solution of substrate (Mca-Lys-Pro-Leu-Gly-Leu-Dpa-Ala-Arg-NH2) was prepared in DMSO at a concentration of 6 mM. Assays were performed in an assay buffer (50 mM Tris pH 7.5, 300 mM NaCl, 10 μM ZnSO4, 5 mM CaCl2, 0.005% Brij-35). The final DMSO concentration in all assays was 1.0%. […] The assays were carried out at 37° C. The fluorescence changes, resulting from the substrate cleavage, were detected using excitation at 340 nm and emission wavelength of 405 nm using a Wallac 1420 Microplate Reader. The reaction mixtures were preincubated with the inhibitors for 30 minutes. The reactions were started by the addition of MMP substrate, and the fluorescence intensity changes were measured after 60 minutes. The obtained fluorescence values were normalized and % inhibition values calculated. Dose response curves were determined from 6 concentration points using three fold dilution steps, each concentration point was determined in duplicate. IC50 values were calculated from the dose response curves.

MMP1 [2] = target: T1, MMP1 (Homo sapiens (Human), UniProt P03956); assay: MMP activity assay (fluorogenic substrate), MMP1; assay type: biochemical; settings: Table 2; read-out: MM1 IC50
Target sequence in this assay (P03956 100-469, species assumed): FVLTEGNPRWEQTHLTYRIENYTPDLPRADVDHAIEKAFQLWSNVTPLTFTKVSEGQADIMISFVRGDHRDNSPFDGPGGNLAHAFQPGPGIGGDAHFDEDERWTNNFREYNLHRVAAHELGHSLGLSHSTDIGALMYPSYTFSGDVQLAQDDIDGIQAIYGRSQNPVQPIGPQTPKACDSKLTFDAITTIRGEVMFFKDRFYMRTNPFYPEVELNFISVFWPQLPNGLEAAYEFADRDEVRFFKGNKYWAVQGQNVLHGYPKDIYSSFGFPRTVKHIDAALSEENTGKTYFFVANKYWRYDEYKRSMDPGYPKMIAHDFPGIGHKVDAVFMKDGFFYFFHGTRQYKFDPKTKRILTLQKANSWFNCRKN

MMP13 [3] = target: T2, MMP13 (Homo sapiens (Human), UniProt P45452); assay: MMP activity assay (fluorogenic substrate), MMP13 catalytic domain; assay type: biochemical; settings: Table 2; read-out: MMP13 IC50
Description: as §3, §4
as §5, with “The fluorescence changes, resulting from the substrate cleavage, were detected using excitation at 340 nm and emission wavelength of 405 nm using a Wallac 1420 Microplate Reader.” left out

[4] = Cytotoxicity, alamarBlue viability, HCT116; assay type: cell-based; settings: human, HCT116 colon tumor cells, 48 hours incubation, read-out: HCT116 LC50
Description: as §2

isolated rat hearts = assay: Myocardial ischemia/reperfusion injury in isolated rat hearts (Langendorff), infarct size; assay type: ex vivo; settings: 5 μM final concentration; isolated rat hearts, 30 min global ischemia, 120 min reperfusion
Description: Male Wistar rats were anesthetized with diethyl ether, heparin (500 U/kg i.v.) was administered and hearts were isolated. The hearts were assigned to three groups: (i) DMSO control and (ii) Compound 1 (1 μM) and (iii) Compound 1 (10 μM) treated. Stock solution of inhibitors was prepared in DMSO. The final DMSO concentration in all assays was 0.1%. Hearts were perfused in Langendorff mode with constant pressure (100 H2O cm) for 20 min at 37° C. then exposed to global ischemia for 30 min followed by 120 min of reperfusion. The DMSO and inhibitors were dissolved in Krebs-Henseleit buffer and administered only before onset of ischemia for 20 min (pretreatment) and during the first 30 min of reperfusion (FIG. 6). At the end of reperfusion, infarct size (IS) was defined by triphenyltetrazolium chloride staining (Csonka et al., 2010).
In separate experiments hearts were perfused to test cardioprotective effect of ALBH-know compound at 5 μM final concentration. The same protocol was used as mentioned above.

MMP2 = MMP2 (Homo sapiens, UniProt P08253); assay: MMP activity assay (fluorogenic substrate), MMP2 catalytic domain; assay type: biochemical; settings: Table 2; read-out: MMP2 IC50
Description: as §3, §4, §5

MMP13 [5] = target: T2, MMP13; assay: In vitro zymography assay (gelatin), MMP-13; assay type: biochemical; settings: % ± SD; for % inhibition MMP-13 (50 kDa): 1 μM; for inhibition at 100 µM: read-out: % inhibition MMP-13 (50 kDa)
Description: as §1

MMP1 [6] = target: T1, MMP1; assay: In vitro zymography assay (casein), MMP-1; assay type: biochemical; settings: % ± SD
Description: as §1
Target sequence in this assay (P03956 100-469): as the sequence (P03956 100-469, species assumed) above

[7] = test system: neonatal rat cardiac myocytes; assay: Cytoprotective effect in cardiac myocytes subjected to hypoxia and reoxygenation; assay type: cell-based
Description: Neonatal rat hearts were digested and isolated cardiomyocytes were plated onto 24-well plastic plates at […]. The cells were maintained at 37° C. in a humidified atmosphere of 5% CO2 and 95% air in a CO2 incubator until confluence was reached. Cultures at day 3 were used for treatments. Cells were kept under normoxic or simulated ischemic conditions, i.e. the growth medium was changed to a normoxic or hypoxic solution and the cells were incubated under 95% air and 5% CO2 or 95% N2 and 5% CO2 at 37° C. for 4 h, respectively as described in detail (Gorbe A, Giricz Z, Szunyog A, Csont T, Burley D S, Baxter G F, Ferdinandy P. Role of cGMP-PKG signaling in the protection of neonatal rat cardiac myocytes subjected to simulated ischemia/reoxygenation. Basic Res Cardiol. 105:643-650, 2010). The positive control ilomastate (0.5 microM) and MMP-inhibitors at different effective concentrations (EC 5, EC 10, EC 20, and EC50 as determined in previous test examples) were applied during normoxia or simulated ischemia and also during reoxygenation. The vehicle was DMSO. Cell viability was determined after Calcein A M fluorescent staining as described (Karliner J S, Honbo N, Summers K, Gray M O, Goetzl E J. The lysophospholipids sphingosine-1-phosphate and lysophosphatidic acid enhance survival during hypoxia in neonatal rat cardiac myocytes. J Mol Cell Cardiol, 33:1713-7, 2001). Total cell count was determined after digitonin treatment to permeabilize the cells by using propidium iodine fluorescent staining (Roy S S, Hajnoczky G. Calcium, mitochondria and apoptosis studied by fluorescence measurements. Methods. 46:213-223, 2008).

[8] = test system: healthy human fibroblast cell line MRC-5; assay: Cytotoxicity, alamarBlue viability, MRC-5; assay type: cell-based; settings: 48 hours incubation, read-out: MRC-5 LC50
Description: as §2

[9] = test system: human colon tumor cell line HCT116; assay: Cytotoxicity, alamarBlue viability, HCT116; assay type: cell-based; settings: 48 hours incubation, read-out: HCT116 LC50
Description: as §2

[10] = % ± SD, read-out: % inhibition MMP-2 (72 kDa)

Sequence of MMP-2 (P33436 110-662): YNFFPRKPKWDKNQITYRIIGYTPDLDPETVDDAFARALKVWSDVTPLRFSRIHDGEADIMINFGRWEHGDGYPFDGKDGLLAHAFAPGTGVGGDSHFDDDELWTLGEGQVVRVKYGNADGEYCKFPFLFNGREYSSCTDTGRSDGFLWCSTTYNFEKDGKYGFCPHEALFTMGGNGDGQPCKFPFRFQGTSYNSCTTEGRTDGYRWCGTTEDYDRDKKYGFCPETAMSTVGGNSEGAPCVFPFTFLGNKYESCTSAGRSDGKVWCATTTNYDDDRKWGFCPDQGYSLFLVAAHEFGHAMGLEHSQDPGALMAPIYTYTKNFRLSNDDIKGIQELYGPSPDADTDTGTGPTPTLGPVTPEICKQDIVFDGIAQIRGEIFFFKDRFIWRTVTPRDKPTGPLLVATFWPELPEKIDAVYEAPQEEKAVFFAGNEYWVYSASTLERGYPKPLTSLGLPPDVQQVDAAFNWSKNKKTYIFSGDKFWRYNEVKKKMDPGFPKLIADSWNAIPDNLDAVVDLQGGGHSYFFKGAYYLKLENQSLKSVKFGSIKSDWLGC

% inhibition MMP-2 (72 kDa) (MMP-2; 1 μM, % ± SD) | inhibition at 100 µM (MMP-2; [10]) [%] | IC50 (MMP9) [µM] | IC50 (MMP1 [2]) [µM] | IC50 (MMP13 [3]) [µM] | IC50 (MMP2) [µM] | % inhibition MMP-13 (50 kDa) (MMP13 [5]) | inhibition at 100 µM (MMP13 [5]) [%] | Compound | CC50 at 48 h [1] [µM] | CC50 at 48 h [4] [µM] | further results
No inhibition | 100 | 15 | 3.6 | 1.62 | – | – | – | O=C(O)c1csc(CN(Cc2ccc(F)cc2)Cc2ccc(OCc3ccccc3)cc2)n1 [ALBH-known, 2-[({[4-(benzyloxy)phenyl]methyl}[(4-fluorophenyl)methyl]amino)methyl]-1,3-thiazole-4-carboxylic acid, reference compound] | 33 | 3.5 | reduction of myocardial IS as compared to vehicle (isolated rat hearts): 72.01±4.96%
– | – | 8 | 16 | 0.28 | 35 | No inhibition | 71.7 ± 4.49 | O=C(O)c1c[nH]c(CN(Cc2ccc(F)cc2)Cc2ccc(OC(c3ccccc3)c3ccccc3)cc2)n1 [Compound 22, 2-[({[4-(Diphenylmethoxy)phenyl]methyl}[(4-fluorophenyl)methyl]amino)methyl]-1H-imidazole-4-carboxylic acid] | 2 | 0.7 | –
No inhibition | 100 | 13 | 3.9 | 1.76 | 6.6 | – | – | O=C(O)c1c[nH]c(CN(Cc2ccc(F)cc2)Cc2ccc(OCc3ccccc3)cc2)n1 [Compound 30, 2-[({[4-(Benzyloxy)phenyl]methyl}[(4-fluorophenyl)methyl]amino)methyl]-1H-imidazole-4-carboxylic acid] | 30 | 6 | IC50 (MMP-2; zymography, Table 8, read-out: IC50 on MMP-2): 0.081 µM; % inhibition MMP-1 (52 kDa) (MMP1 [6]; 1 μM): No inhibition; % inhibition MMP-1 (55 kDa) (MMP1 [6]; 1 μM): No inhibition; inhibition at 100 µM (MMP1 [6]; read-out: % inhibition MMP-1 (52 kDa)): 63.4 ± 18.3%; inhibition at 100 µM (MMP1 [6]; read-out: % inhibition MMP-1 (55 kDa)): 61.1 ± 6.78%
– | 4.78 ± 7.18 | > 500 | > 500 | 8.5 | > 500 | – | – | O=C(O)c1csc(CN(Cc2ccc(OCc3ccncc3)cc2)Cc2cccnc2)n1 [Compound 12, 2-{[(Pyridin-3-ylmethyl)({[4-(pyridin-4-ylmethoxy)phenyl]methyl})amino]methyl}-1,3-thiazole-4-carboxylic acid] | 90 | 37 | inhibition at 1 µM (MMP-2; 1 μM, % ± SD, read-out: % inhibition MMP-2 (72 kDa)): 5.59 ± 11.8%
– | – | > 500 | > 500 | 1.5 | > 500 | No inhibition | 53.6 ± 18.9 | O=C(O)c1csc(CN(Cc2ccc(OCc3cccnc3)cc2)Cc2cccnc2)n1 [Compound 10, 2-[({[4-(Pyridin-3-ylmethoxy)phenyl]methyl}(pyridin-3-ylmethyl)amino)methyl]-1,3-thiazole-4-carboxylic acid] | 20 | 20 | Cytoprotective effect, % cell survival as compared to vehicle DMSO ([7]; normoxia, EC5 concentration 0.3 microM): 112 ± 3 %; Cytoprotective effect, % cell survival as compared to vehicle DMSO ([7]; normoxia, EC10 concentration 1.0 microM): 112 ± 1 %; Cytoprotective effect, % cell survival as compared to vehicle DMSO ([7]; normoxia, EC20 concentration 3.0 microM): 115 ± 3 %; Cytoprotective effect, % cell survival as compared to vehicle DMSO ([7]; normoxia, EC50 concentration 9.0 microM): 108 ± 1%; Cytoprotective effect, % cell survival as compared to vehicle DMSO ([7]; simulated ischemia, EC5 concentration 0.3 microM): 117 ± 2 %; Cytoprotective effect, % cell survival as compared to vehicle DMSO ([7]; simulated ischemia, EC10 concentration 1.0 microM): 119 ± 2 %; Cytoprotective effect, % cell survival as compared to vehicle DMSO ([7]; simulated ischemia, EC20 concentration 3.0 microM): 123 ± 6 %; Cytoprotective effect, % cell survival as compared to vehicle DMSO ([7]; simulated ischemia, EC50 concentration 9.0 microM): 136 ± 2 %
– | – | 100 | 33 | 3.3 | 15 | – | – | O=C(O)c1c[nH]c(CN(Cc2ccc(F)cc2)Cc2ccc(OCc3ccccc3)cc2)n1 [Compound 30 HCl, 2-[({[4-(Benzyloxy)phenyl]methyl}[(4-fluorophenyl)methyl]amino)methyl]-1H-imidazole-4-carboxylic acid] | – | – | CC50 [8]: 15 µM; CC50 [9]: 5.6 µM
